Reference: ChEMBL document CHEMBL1133615 (J Med Chem, 2000)
pKi: −log10 of the molar value.

Experiments:
[1] = organism: Oryctolagus cuniculus; test: Inhibition of Endothelin-1 induced contractions in rabbit carotid artery rings.; assay type: functional
[2] = molecular target: T1, Endothelin receptor type B (Homo sapiens, UniProt P24530); test: Inhibition of Human Endothelin B receptor expressed in CHO Cells.
T1 sequence (P24530 whole entry): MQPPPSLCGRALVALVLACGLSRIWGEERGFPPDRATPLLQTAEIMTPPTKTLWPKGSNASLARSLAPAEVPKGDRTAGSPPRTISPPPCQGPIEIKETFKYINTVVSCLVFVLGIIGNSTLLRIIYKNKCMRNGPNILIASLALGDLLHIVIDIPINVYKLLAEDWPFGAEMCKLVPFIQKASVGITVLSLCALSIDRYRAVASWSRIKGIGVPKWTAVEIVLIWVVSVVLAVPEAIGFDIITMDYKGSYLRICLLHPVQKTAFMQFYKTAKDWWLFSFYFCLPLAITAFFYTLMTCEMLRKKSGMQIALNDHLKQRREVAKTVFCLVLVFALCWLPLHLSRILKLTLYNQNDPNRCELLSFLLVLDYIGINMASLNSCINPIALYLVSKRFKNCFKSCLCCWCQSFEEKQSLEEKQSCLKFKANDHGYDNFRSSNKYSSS

[3] = molecular target: T2, Endothelin-1 receptor (Homo sapiens, UniProt P25101)
T2 sequence (P25101 whole entry): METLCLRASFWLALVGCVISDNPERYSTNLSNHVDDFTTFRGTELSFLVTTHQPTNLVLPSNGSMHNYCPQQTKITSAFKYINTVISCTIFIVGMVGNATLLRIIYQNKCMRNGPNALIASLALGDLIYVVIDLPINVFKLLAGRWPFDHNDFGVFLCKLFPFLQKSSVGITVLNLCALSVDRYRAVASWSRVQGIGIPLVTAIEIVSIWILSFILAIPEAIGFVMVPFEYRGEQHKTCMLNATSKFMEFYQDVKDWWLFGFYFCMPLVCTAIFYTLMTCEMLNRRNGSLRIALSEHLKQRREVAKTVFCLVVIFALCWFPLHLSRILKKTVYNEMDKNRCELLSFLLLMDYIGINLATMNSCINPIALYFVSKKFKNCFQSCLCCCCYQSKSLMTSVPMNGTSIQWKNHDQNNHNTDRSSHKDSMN
Description: Inhibition of Human Endothelin A receptor expressed in CHO Cells.

Row | pKi [2] | pKi [3] | SMILES | Kb [1]
1 | 4.00 | 8.70 | Cc1coc(-c2ccc(-c3ccccc3S(=O)(=O)Nc3onc(C)c3C)cc2)n1 | 18 nM
2 | 4.03 | 8.33 | Cc1noc(NS(=O)(=O)c2ccccc2-c2ccc(-c3ncoc3C)cc2)c1C | 47 nM
3 | 4.92 | 7.96 | Cc1cnc(-c2ccc(-c3ccccc3S(=O)(=O)Nc3onc(C)c3C)cc2)o1 | 140 nM
4 | 4.11 | 8.43 | Cc1noc(NS(=O)(=O)c2ccccc2-c2ccc(-c3cnco3)cc2)c1C | 58 nM
5 | 4.92 | 7.80 | Cc1nc(-c2ccc(-c3ccccc3S(=O)(=O)Nc3onc(C)c3C)cc2)oc1C | 230 nM
6 | 4.03 | 5.70 | Cc1noc(NS(=O)(=O)c2ccccc2-c2ccc(-c3nc4ccccc4o3)cc2)c1C | –
7 | 4.70 | 9.30 | Cc1noc(NS(=O)(=O)c2ccccc2-c2ccc(-c3cocn3)cc2)c1C | 20 nM
8 | – | 8.33 | Cc1noc(NS(=O)(=O)c2ccccc2-c2ccc(CC(C)C)cc2N)c1C | –
9 | 4.47 | 7.72 | Cc1noc(NS(=O)(=O)c2ccccc2-c2ccc(Cc3ncco3)cc2)c1C | 320 nM
10 | 3.96 | 7.15 | Cc1nc(-c2ccc(-c3ccccc3S(=O)(=O)Nc3onc(C)c3C)cc2)co1 | 2500 nM
11 | 5.77 | 7.74 | Cc1noc(NS(=O)(=O)c2ccccc2-c2ccc(CC(C)C)cc2)c1C | 210 nM
